Source: US20190119200A1, “TERTIARY AMIDES AND METHOD OF USE” (AbbVie Inc., priority 2016, published 2019)

Legend:
Format in all cases: cell-based
[1] = molecular target: T1, LPAR1 (Homo sapiens, UniProt Q92633); experiment: LPAR1 FLIPR Assay; details: U2OS cells stably expressing LPAR1, LPA (EC80), Calcium 6 FLIPR dye; for Emax: read-out: Maximum Inhibition
T1 construct: host or cells: U2OS
Method in brief: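 Calcium flux read-out (515-575 nm, FLIPR) in LPAR1-expressing U2OS cells after LPA challenge at EC80, given 3 min after compound addition; cells carried Calcium 6 dye loaded 2 h at 37° C. Eleven-point 3-fold dilutions were fitted with a four-parameter Hill equation for IC50.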

[2] = molecular target: T1, LPAR1; experiment: IP-One HTRF Assay; details: U2OS cells stably expressing LPAR1, LPA stimulation, IP-One Tb HTRF kit; for Emax: read-out: Maximum Inhibition
Procedure: U2OS cells stably expressing LPAR1 (Life Technologies #K1519A) were plated at 20000 cells/well in growth medium (McCoy's 5A(Life Technologies #16600-082)) with 10% dFBS (Life Technologies #26400-036), 0.1 mM non-essential amino acids, 25 mM HEPES, 1 mM sodium pyruvate, 1% penicillin/streptomycin, 50 μg/mL hygromycin, and 100 μg/mL Geneticin® in tissue culture treated 384-well white plates (Greiner #781080) in humidified 5% CO2 at 37° C. overnight. On the day of the assay, culture medium was replaced with 30 μL/well of McCoy's 5A with 0.1% BSA. Cells were incubated in humidified 5% CO2 at 37° C. for 3 more hours. Compounds were 3-fold serial diluted from 2 mM for 11-points using dimethyl sulfoxide. 1 μL of compound in DMSO was diluted in 50 μL stimulation buffer from an IP-One Tb HTRF kit (Cisbio #62IPAPEB) immediately before assay. 15 μL/well of 1.33× compound in stimulation buffer was added to cells after removal of culture medium. After 20 minutes of incubation at 37° C., 5 μL/well of 8 μM LPA diluted in stimulation buffer with 0.1% fatty acid free BSA was added to cells. […]. To EC100 wells were added 4×20 μM LPA. To the cells were added 5 μL/well IP1-d2 conjugate and 5 μLwell IP1-K antibody after 2 hours of incubation at 37° C. Cells were incubated at room temperature for 1 hour (protected from light). The plate was then read at 665 nm and 615 nm using an EnVision® Multilabel Plate Reader. IC50 values were calculated from curve fits of the ratio data using a four-parameter logistic Hill equation (Assay Explorer 3.3 Client).

[3] = system: LPA-induced MCP-1 in NRK-49F cells; experiment: LPA-induced MCP-1 AlphaLISA assay; details: Rattus norvegicus, final LPA 10 μM, 7 hours; for Emax: read-out: Maximum Inhibition
Method in brief: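 NRK-49F rat fibroblasts, serum-starved overnight, pretreated with compound for 30 min at 37 °C (1% DMSO final), then stimulated with 10 μM LPA final. MCP-1 in the supernatant was measured by mouse/rat CCL2 AlphaLISA. IC50 values came from four-parameter logistic fits of the ratio data.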

T1 sequence (Q92633 whole entry): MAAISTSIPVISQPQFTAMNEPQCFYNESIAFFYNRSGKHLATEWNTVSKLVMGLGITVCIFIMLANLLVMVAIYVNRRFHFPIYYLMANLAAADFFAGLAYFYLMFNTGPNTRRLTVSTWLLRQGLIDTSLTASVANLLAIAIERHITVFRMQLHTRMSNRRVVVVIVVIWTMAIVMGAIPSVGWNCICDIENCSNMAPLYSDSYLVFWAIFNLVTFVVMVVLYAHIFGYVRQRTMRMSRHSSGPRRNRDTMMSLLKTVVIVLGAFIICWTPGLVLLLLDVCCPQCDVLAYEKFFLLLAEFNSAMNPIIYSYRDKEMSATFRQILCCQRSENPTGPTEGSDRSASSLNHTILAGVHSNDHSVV

Structure (SMILES) | IC50 [1] [nM] | Emax [1] [%] | IC50 [2] [nM] | Emax [2] [%] | IC50 [3] [nM] | Emax [3] [%]
COc1cc(C(=O)N(CCCc2ccccc2)CCOC(C)(C)C(=O)O)cc(OC)c1C [Example 55, 2-{2-[(3,5-dimethoxy-4-methylbenzoyl)(3-phenylpropyl)amino]ethoxy}-2-methylpropanoic Acid] | 22 | 100 | 89 | 98 | 111 | 93
COc1cc(OC)cc(C(=O)N(CCCCP(=O)(O)O)CCCc2ccccc2)c1 [Example 75, {4-[(3,5-dimethoxybenzoyl)(3-phenylpropyl)amino]butyl}phosphonic Acid] | 20 | 72 | 1070 | 77 | 3250 | 65
COc1cc(OC)cc(C(=O)N(CCCc2ccccc2)CCCC(C)(C)C(=O)O)c1 [Example 108, 5-[(3,5-dimethoxybenzoyl)(3-phenylpropyl)amino]-2,2-dimethylpentanoic Acid] | 26 | 94 | 230 | 82 | 668 | 83
CCOP(=O)(O)CCCCN(CCCc1ccccc1)C(=O)c1cc(OC)cc(OC)c1 [Example 76, ethyl hydrogen {4-[(3,5-dimethoxybenzoyl)(3-phenylpropyl)amino]butyl}phosphonate] | 48 | 76 | 5830 | 65 | > 10000 | 36
COc1cc(C(=O)N(CCCc2ccccc2)CCSCC2(C(=O)O)CC2)cc(OC)c1C [Example 61, 1-[({2-[(3,5-dimethoxy-4-methylbenzoyl)(3-phenylpropyl)amino]ethyl}sulfanyl)methyl]cyclopropane-1-carboxylic Acid] | 20 | 98 | 114 | 85 | 147 | 92
COc1cc(C(=O)N(CCCCC(=O)O)CCCc2ccc(C)s2)cc(OC)c1C [Example 41, 5-{(3,5-dimethoxy-4-methylbenzoyl)[3-(5-methylthiophen-2-yl)propyl]amino}pentanoic Acid] | 22 | 97 | 191 | 100 | 335 | 88
COc1cc(C(=O)N(CCCC(=O)O)CCCc2ccccc2)cc(OC)c1C [Example 69, 4-[(3,5-dimethoxy-4-methylbenzoyl)(3-phenylpropyl)amino]butanoic Acid] | > 30000 | 38 | 3820 | 85 | 1660 | 62
COc1cc(C(=O)N(CCCc2c(F)cccc2F)CCOCC(=O)O)cc(OC)c1C [Example 128, (2-{[3-(2,6-difluorophenyl)propyl](3,5-dimethoxy-4-methylbenzoyl)amino}ethoxy)acetic Acid] | 23 | 89 | 1800 | 101 | 1080 | 78
COc1cc(C(=O)N(CCCc2ccccc2)CC(=O)NC2(C(=O)O)CCCCC2)cc(OC)c1C [Example 2, 1-{[N-(3,5-dimethoxy-4-methylbenzoyl)-N-(3-phenylpropyl)glycyl]amino}cyclohexane-1-carboxylic Acid] | 114 | 72 | 4830 | 84 |  | 
COc1cc(C(=O)N(CCCc2ccccc2)CC(=O)NC2(C(=O)O)Cc3ccccc3C2)cc(OC)c1C [Example 1, 2-{[N-(3,5-dimethoxy-4-methylbenzoyl)-N-(3-phenylpropyl)glycyl]amino}-2,3-dihydro-1H-indene-2-carboxylic Acid] | 45 | 74 | 1210 | 75 | 1540 | 66
COc1cc(C(=O)N(CCCc2ccccc2)CCOCC2(C(=O)O)CC2)cc(OC)c1C [Example 59, 1-({2-[(3,5-dimethoxy-4-methylbenzoyl)(3-phenylpropyl)amino]ethoxy}methyl)cyclopropane-1-carboxylic Acid] | 23 | 100 | 449 | 88 | 127 | 93
COc1cc(C(=O)N(CCCc2ccccc2)CCCC(C)C(=O)O)cc(OC)c1C (stereo not shown) [Example 54, 5-[(3,5-dimethoxy-4-methylbenzoyl)(3-phenylpropyl)amino]-2-methylpentanoic Acid] | 15 | 100 | 22 | 91 | 55 | 96
CNS(=O)(=O)NC(=O)CCCCN(CCCc1ccccc1)C(=O)c1cc(OC)cc(OC)c1 [Example 74, 3,5-dimethoxy-N-{5-[(methylsulfamoyl)amino]-5-oxopentyl}-N-(3-phenylpropyl)benzamide] | 79 | 67 | 1180 | 63 | 3880 | 77
COc1cc(C(=O)N(CCCCC(=O)NS(=O)(=O)C(F)(F)F)CCCc2ccccc2)cc(OC)c1C [Example 150, 3,5-dimethoxy-4-methyl-N-{5-oxo-5-[(trifluoromethanesulfonyl)amino]pentyl}-N-(3-phenylpropyl)benzamide] | 45 | 73 |  |  | 2030 | 67
COc1ccc(C(=O)N(CCCCC(=O)O)CCCc2ccccc2)cc1F [Example 79, 5-[(3-fluoro-4-methoxybenzoyl)(3-phenylpropyl)amino]pentanoic Acid] | > 30000 | 13 |  |  | > 10000 | 36
O=C(O)CCCCN(CCCc1ccccc1)C(=O)c1ccc2c(c1)OCO2 [Example 80, 5-[(2H-1,3-benzodioxole-5-carbonyl)(3-phenylpropyl)amino]pentanoic Acid] | > 30000 | 37 |  |  | > 10000 | 37
COc1cc(C(=O)N(CCCCc2nnn[nH]2)CCCc2ccccc2)cc(OC)c1C [Example 166, 3,5-dimethoxy-4-methyl-N-(3-phenylpropyl)-N-[4-(1H-tetrazol-5-yl)butyl]benzamide] | 42 | 96 |  |  | 1060 | 80
COc1cccc(C2(C(=O)N(CCCCC(=O)O)CCCc3ccccc3)CC2)c1 [Example 82, 5-{[1-(3-methoxyphenyl)cyclopropane-1-carbonyl](3-phenylpropyl)amino}pentanoic Acid] | > 30000 | 39 |  |  | > 10000 | 2
CCC1CCC(NC(=O)CN(CCCc2ccccc2)C(=O)c2cc(OC)c(C)c(OC)c2)(C(=O)O)CC1 (stereo not shown) [Example 104, 1-{[N-(3,5-dimethoxy-4-methylbenzoyl)-N-(3-phenylpropyl)glycyl]amino}-4-ethylcyclohexane-1-carboxylic Acid] | 94 | 95 |  |  | 2900 | 74
COc1cc(C(=O)N(CCCc2c(F)cccc2F)CCSCC(=O)O)cc(OC)c1C [Example 113, [(2-{[3-(2,6-difluorophenyl)propyl](3,5-dimethoxy-4-methylbenzoyl)amino}ethyl)sulfanyl]acetic Acid] | 32 | 87 |  |  | 1010 | 86
CNS(=O)(=O)NC(=O)CCN(CCCc1ccccc1)C(=O)c1cc(OC)c(C)c(OC)c1 [Example 68, 3,5-dimethoxy-4-methyl-N-{3-[(methylsulfamoyl)amino]-3-oxopropyl}-N-(3-phenylpropyl)benzamide] | 902 | 52 | 13300 | 67 |  | 
COc1ccc(C2(C(=O)N(CCCCC(=O)O)CCCc3ccccc3)CC2)c(F)c1 [Example 103, 5-{[1-(2-fluoro-4-methoxyphenyl)cyclopropane-1-carbonyl](3-phenylpropyl)amino}pentanoic Acid] | 68 | 75 |  |  | 5460 | 62
